Starred links: 1 amine or outer side, 2 acyl side, 3 side chain; linkers in the order of their positions; H or OH if unused. Non-standard residues stand in square brackets, D forms with d. Residues, ends and D or L forms follow the SMILES beside them. Groups on a side chain read outwards from the residue. *: point of attachment. C20 diacid = O=C(O)CCCCCCCCCCCCCCCCCCC(=O)*; γGlu = O=C(O)[C@H](CCC(=O)[*:2])N[*:1]; AEEA = NCCOCCOCC(=O)O; Aib = CC(C)(N)C(=O)O
Experiment: Food intake of diet-induced-obesity (DIO) mice
Assay type: in vivo, C57BL/6 mice
Experimental: High-fat food-induced-obesity male C57BL/6 mice (weighing 35-55 g, aged 10-12 weeks, purchased from Shanghai Jiesijie Laboratory Animal Co., Ltd.) were tested. […] According to the experimental design, the body weight of each mouse was measured and recorded on day 0, day 3, day 6, and so on to day 27, the average body weight of each group of mice was calculated, and body weight change curves were plotted by taking the body weight on the first day as the standard. At the end, the fat and other visceral organs of each part of the mice were taken out and weighed, and the viscera/brain ratio for fat in each part of each mouse was calculated. The effect of the drug on the fat was determined by comparing the change in the viscera/brain ratio for fat of different parts of each group of mice.
The food intake of mice in each group was measured daily during the experiment.

Compound: CC[C@H](C)[C@H](NC(=O)[C@H](CCCCN)NC(=O)[C@H](CCC(=O)O)NC(=O)[C@H](CCCCNC(=O)COCCOCCNC(=O)COCCOCCNC(=O)CC[C@H](NC(=O)CCCCCCCCCCCCCCCCCCC(=O)O)C(=O)O)NC(=O)[C@H](Cc1ccc(O)cc1)NC(=O)[C@@H](NC(=O)[C@H](CO)NC(=O)[C@H](Cc1ccc(O)cc1)NC(=O)[C@H](CC(=O)O)NC(=O)[C@H](CO)NC(=O)[C@@H](NC(=O)[C@H](Cc1ccccc1)NC(=O)[C@@H](NC(=O)CNC(=O)[C@H](CCC(=O)O)NC(=O)C(C)(C)NC(=O)[C@@H](N)Cc1ccc(O)cc1)[C@@H](C)O)[C@@H](C)O)[C@@H](C)CC)C(=O)N[C@@H](C)C(=O)N[C@@H](C)C(=O)N[C@@H](CCC(N)=O)C(=O)N[C@@H](CCC(=O)O)C(=O)N[C@@H](Cc1ccccc1)C(=O)N[C@H](C(=O)N[C@@H](CC(N)=O)C(=O)N[C@@H](Cc1c[nH]c2ccccc12)C(=O)N[C@@H](CC(C)C)C(=O)N[C@@H](CC(C)C)C(=O)N[C@@H](C)C(=O)NCC(=O)NCC(=O)N1CCC[C@H]1C(=O)N[C@@H](CO)C(=O)N[C@@H](CO)C(=O)NCC(=O)N[C@@H](C)C(=O)N1CCC[C@H]1C(=O)N1CCC[C@H]1C(=O)N1CCC[C@H]1C(=O)N[C@@H](CO)C(N)=O)C(C)C [Compound 18#] (H-Y[Aib]EGTFTSDYSIYK([AEEA-AEEA-γGlu-C20 diacid])EKIAAQEFVNWLLAGGPSSGAPPPS-NH2)
- cumulative food intake 28 days after the administration (3 nmol/kg): 58.2 g
- cumulative food intake within 5 days after the administration (3 nmol/kg): 7.2 g
- daily food intake (3 nmol/kg, day 1, listed as 18 #): 0.6 g
- daily food intake (3 nmol/kg, day 1, listed as 18#): 0.6 g
- daily food intake (3 nmol/kg, day 2): 1.3 g
- daily food intake (3 nmol/kg, day 3): 2 g
- daily food intake (3 nmol/kg, day 4): 1.1 g
- daily food intake (3 nmol/kg, day 5): 2.2 g
- daily food intake (3 nmol/kg, day 6): 2.1 g
- daily food intake (3 nmol/kg, day 7): 1.1 g
- daily food intake (3 nmol/kg, day 8): 1.6 g
- daily food intake (3 nmol/kg, day 9): 2.5 g
- daily food intake (3 nmol/kg, day 10): 1.3 g
- daily food intake (3 nmol/kg, day 11): 2 g
- daily food intake (3 nmol/kg, day 12): 3 g
- daily food intake (3 nmol/kg, day 13): 1.8 g
- daily food intake (3 nmol/kg, day 14): 2.3 g
- daily food intake (3 nmol/kg, day 15): 2.9 g
- daily food intake (3 nmol/kg, day 16): 1.5 g
- daily food intake (3 nmol/kg, day 17): 2.2 g
- daily food intake (3 nmol/kg, day 18): 2.7 g
- daily food intake (3 nmol/kg, day 19): 1.7 g
- daily food intake (3 nmol/kg, day 20): 2.2 g
- daily food intake (3 nmol/kg, day 21): 3.4 g
- daily food intake (3 nmol/kg, day 22): 1.8 g
- daily food intake (3 nmol/kg, day 23): 2.6 g
- daily food intake (3 nmol/kg, day 24): 2.9 g
- daily food intake (3 nmol/kg, day 25): 1.8 g
- daily food intake (3 nmol/kg, day 26): 2.5 g
- daily food intake (3 nmol/kg, day 27): 3.9 g
- daily food intake (3 nmol/kg, day 28): 1.3 g
- cumulative food intake 28 days after the administration (10 nmol/kg): 46.8 g
- cumulative food intake within 5 days after the administration (10 nmol/kg): 3.9 g
- daily food intake (10 nmol/kg, day 1, listed as 18 #): 0.3 g
- daily food intake (10 nmol/kg, day 1, listed as 18#): 0.3 g
- daily food intake (10 nmol/kg, day 2): 0.6 g
- daily food intake (10 nmol/kg, day 3): 1.1 g
- daily food intake (10 nmol/kg, day 4): 0.7 g
- daily food intake (10 nmol/kg, day 5): 1.1 g
- daily food intake (10 nmol/kg, day 6): 1.5 g
- daily food intake (10 nmol/kg, day 7): 0.8 g
- daily food intake (10 nmol/kg, day 8): 1.1 g
- daily food intake (10 nmol/kg, day 9): 2 g
- daily food intake (10 nmol/kg, day 10): 0.9 g
- daily food intake (10 nmol/kg, day 11): 1.8 g
- daily food intake (10 nmol/kg, day 12): 2.4 g
- daily food intake (10 nmol/kg, day 13): 0.9 g
- daily food intake (10 nmol/kg, day 14): 1.7 g
- daily food intake (10 nmol/kg, day 15): 3 g
- daily food intake (10 nmol/kg, day 16): 1.2 g
- daily food intake (10 nmol/kg, day 17): 2.1 g
- daily food intake (10 nmol/kg, day 18): 2.9 g
- daily food intake (10 nmol/kg, day 19): 1.3 g
- daily food intake (10 nmol/kg, day 20): 2 g
- daily food intake (10 nmol/kg, day 21): 3.2 g
- daily food intake (10 nmol/kg, day 22): 1 g
- daily food intake (10 nmol/kg, day 23): 2.3 g
- daily food intake (10 nmol/kg, day 24): 2.5 g
- daily food intake (10 nmol/kg, day 25): 1.6 g
- daily food intake (10 nmol/kg, day 26): 2.2 g
- daily food intake (10 nmol/kg, day 27): 3.6 g
- daily food intake (10 nmol/kg, day 28): 1 g
- cumulative food intake 28 days after the administration (100 nmol/kg): 36.7 g
- cumulative food intake within 5 days after the administration (100 nmol/kg): 1.8 g
- daily food intake (100 nmol/kg, day 1, listed as 18 #): 0.2 g
- daily food intake (100 nmol/kg, day 1, listed as 18#): 0.2 g
- daily food intake (100 nmol/kg, day 2): 0.1 g
- daily food intake (100 nmol/kg, day 3): 0.4 g
- daily food intake (100 nmol/kg, day 4): 0.4 g
- daily food intake (100 nmol/kg, day 5): 0.6 g
- daily food intake (100 nmol/kg, day 6): 0.7 g
